Data published in the NIST ThermoML archive (doi:10.1016/j.fluid.2016.06.019).
± gives the expanded uncertainty stated by the source.

Columns and labels:
[1] = refractive index (Na D-line) (dimensionless); wn = mass fraction of the nth substance listed; settings: 298.15 K, 100 kPa, Liquid, Standard Abbe refractometry
[2] = wn = mass fraction of the nth substance listed; settings: 298.15 K, 100 kPa, Liquid, Vibrating tube method
[3] = refractive index (Na D-line) (dimensionless); settings: 298.15 K; 100 kPa; Liquid; Standard Abbe refractometry

N.N.O=S(=O)(O)O [ammonium sulfate] + O
Settings	mass density, [2] [kg/m3]	refractive index, [1]
w1 = 0.0005	997.4 ± 0.2	1.33259 ± 0.00031
w1 = 0.0011	997.7 ± 0.2	1.33268 ± 0.00031
w1 = 0.0053	1000.3 ± 0.2	1.33337 ± 0.00031
w1 = 0.0104	1003.3 ± 0.2	1.33425 ± 0.00031
w1 = 0.0208	1009.4 ± 0.2	1.33594 ± 0.00031
w1 = 0.0412	1021.2 ± 0.2	1.33921 ± 0.00032
w1 = 0.0712	1038.4 ± 0.2	1.34393 ± 0.00032
w1 = 0.1007	1055.3 ± 0.2	1.34856 ± 0.00032

O=S(=O)([O-])[O-].[Na+].[Na+] [sodium sulfate] + O
Settings	mass density, [2] [kg/m3]	refractive index, [1]
w1 = 0.0005	997.6 ± 0.3	1.33258 ± 0.00031
w1 = 0.0011	998.1 ± 0.3	1.33266 ± 0.00031
w1 = 0.0053	1002 ± 0.3	1.33331 ± 0.00031
w1 = 0.0108	1006.9 ± 0.3	1.33414 ± 0.00031
w1 = 0.0214	1016.5 ± 0.3	1.3357 ± 0.00031
w1 = 0.042	1035.1 ± 0.3	1.33875 ± 0.00031
w1 = 0.0719	1062.6 ± 0.3	1.34307 ± 0.00032
w1 = 0.0994	1088.5 ± 0.3	1.34535 ± 0.00032

O [water]
Settings	refractive index
[3]	1.3325 ± 0.00031

O [water] + N.N.O=S(=O)(O)O
Settings	refractive index
[1], w2 = 0	1.3325 ± 0.00031

O [water] + O=S(=O)([O-])[O-].[Na+].[Na+]
Settings	refractive index
[1], w2 = 0	1.3325 ± 0.00031
